Results published in US9670482B2, “Multispecific peptides” (BICYCLE THERAPEUTICS LIMITED, priority 2009, dated 2017).
Residues, ends and D or L forms follow the SMILES beside them.

Columns and labels:
[1] = molecular target: bovine serum albumin (BSA) (Bos taurus, UniProt P02769); test: Fluorescence anisotropy titration with BSA; details: for binding to BSA (change in anisotropy): titration with BSA, FIG. 4
From the text: For determining the affinity constant (Kd) of a fluorophore to target protein, we chose fluorescence anisotropy titrations.
Excitation was specific for coumarin (328 nm), and emission at 393 nm.
To determine whether a neighbouring group (here, Gly) on Fmoc affects binding to BSA, a similar experiment was run with Fmoc-Gly-OH (Nova Biochem). The intrinsic fluorescing properties of Fmoc were used for the anisotropy experiments.
To determine whether a neighbouring hydrophobic bulky group has an enhancing or adverse effect on BSA binding, Fmoc-Phe-OH was tested as above.
The solid phase resin employed was PAL-PEG-PS from Applied Biosystems. […] All peptides were capped with an N-terminal Fmoc, and a C-terminal amide (NH2). After cleavage, peptides were lyophilised, and solubilised in 5 mL of DMF. 100 μl of this was loaded onto an analytical C18 column using a Waters HPLC, using methanol and water (both in the presence of 0.1% TFA) as solvents. […] The peptide concentration in the cuvette was 200 nM.
Excitation was at 299 nm (to minimise Trp absorption), and emission at 320 nm. Slit widths were at 5 and 12 nm, respectively.
Peptide concentrations were estimated by the absorbance at 299 nm, using the extinction coefficient of 4700/M/cm. Excitation was at 299 nm, and emission was set to 320 nm, at slit widths of 5 and 12 nm, respectively.

Subtilisin = test: Peptide conjugate digestion with Subtilisin; type: in vitro ADME; details: 37° C. for 1 hr
Method: (§1) Linear peptides (PK15 and CG4L1-PK15L1) were first treated with iodoacetamide prior to digestion studies. The peptides (ca 3-4 mg) were purified by HPLC (semi-prep Proteo column as described in general methods), and the HPLC fraction (ca 3 ml) was neutralised with an equal volume of 50 mM ammonium bicarbonate. […] The reaction mixture was concentrated (rotary evaporator) and re-purified by HPLC as above.
(§2) Peptides (linear and conjugates) were dissolved in water at a concentration of 1 mg/ml, giving an effective concentration of −0.5 mM stock solutions. 2 μl of peptide conjugates (˜30 μM in reactions depending on actual molecular weight) where dissolved in reaction buffer (see below) in a total reaction volume of 30 μl, followed by the protease, and samples were incubated at 37° C. for 1 hr. 10 μl aliquots were quenched into 20 μl of 10% dichloroacetic acid in MeCN/H2O (1:1) and stored at −20° C. for 30 minutes, centrifuged at 4° C. (13000 rpm) for 5 minutes and then spotted onto MALDI-TOF mass spectrometer plate for analysis.
(§3) All reactions at 37° C. Cathepsin G and kalikrein reactions were carried out in 10 mM Tris pH 7.4, 150 mM NaCl, 10 mM MgCl2, 1 mM CaCl2, 0.1% BSA, 0.01% Triton X100, 5% DMSO. Chymotrypsin reactions were carried out in 100 mM Tris pH 7.4, 10 mM CaCl2. Pronase and proteinase K reactions were carried out in 100 mM Tris pH 7.4, 0.5% SDS. Subtilisin reactions were carried out in 50 mM KH2PO4 pH 7.5. Trypsin reactions were carried out in 67 mM sodium phosphate pH 7.6. Reaction conditions with serum involve dissolving the peptide in 1×PBS (total volume 24 μl) and 6 μl of human serum added to the reaction.

Trypsin = test: Peptide conjugate digestion with Trypsin; type: in vitro ADME; details: 37° C. for 1 hr
Method: as §1, §2, §3

Kalikrein = Kalikrein (Homo sapiens, UniProt P03952); test: Peptide conjugate digestion with Kalikrein; type: in vitro ADME; set-up: digestion with Kalikrein: key to the marks not given beside the values; details: 37° C. for 1 hr
Kalikrein, sequence (P03952 20-638): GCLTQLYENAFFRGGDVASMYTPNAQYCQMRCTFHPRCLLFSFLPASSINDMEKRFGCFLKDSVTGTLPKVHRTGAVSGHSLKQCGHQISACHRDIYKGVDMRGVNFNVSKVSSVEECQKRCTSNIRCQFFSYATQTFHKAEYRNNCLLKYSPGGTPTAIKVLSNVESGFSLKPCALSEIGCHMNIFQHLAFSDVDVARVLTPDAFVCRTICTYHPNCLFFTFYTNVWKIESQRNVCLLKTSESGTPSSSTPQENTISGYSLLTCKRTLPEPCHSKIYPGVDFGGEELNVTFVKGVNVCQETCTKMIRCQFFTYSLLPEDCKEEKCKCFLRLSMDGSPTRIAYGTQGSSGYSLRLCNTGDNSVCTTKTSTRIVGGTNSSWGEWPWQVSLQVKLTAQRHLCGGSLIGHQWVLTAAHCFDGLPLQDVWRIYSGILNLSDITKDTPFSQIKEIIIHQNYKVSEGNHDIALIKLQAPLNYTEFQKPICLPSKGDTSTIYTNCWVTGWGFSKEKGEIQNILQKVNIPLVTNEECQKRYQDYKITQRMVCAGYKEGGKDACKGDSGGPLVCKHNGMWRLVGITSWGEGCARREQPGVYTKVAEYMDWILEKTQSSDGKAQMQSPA
Method: as §1, §2, §3

Pronase = test: Peptide conjugate digestion with Pronase; type: in vitro ADME; set-up: key to the marks not given beside the values; details: 37° C. for 1 hr
Method: as §1, §2, §3

Cathepsin G = molecular target: T1, Cathepsin G (Homo sapiens, UniProt P08311); test: Peptide conjugate digestion with Cathepsin G; type: in vitro ADME; set-up: key to the marks not given beside the values; details: 37° C. for 1 hr
T1 sequence (P08311 21-244): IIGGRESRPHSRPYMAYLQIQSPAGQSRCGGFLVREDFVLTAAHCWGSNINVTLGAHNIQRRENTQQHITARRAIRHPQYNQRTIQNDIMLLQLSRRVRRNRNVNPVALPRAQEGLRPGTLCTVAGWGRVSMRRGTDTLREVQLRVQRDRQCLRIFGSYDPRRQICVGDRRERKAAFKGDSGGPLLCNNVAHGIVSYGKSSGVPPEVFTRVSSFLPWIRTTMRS
Method: as §1, §2, §3

Chymotrypsin = test: Peptide conjugate digestion with Chymotrypsin; type: in vitro ADME; details: 37° C. for 1 hr
Method: as §1, §2, §3

Kallikrein = molecular target: T2, Kallikrein (Homo sapiens, UniProt P03952); test: Kallikrein assays (Z-Phe-Arg-amc substrate); type: biochemical; details: IC50 for inhibition of kallikrein activity, 0.1 nM kallikrein, 100 μM substrate, 30° C.
T2 construct: purchased Sigma Aldrich
T2 sequence (P03952 20-638): as the sequence (P03952 20-638) above
Method: Enzymes were purchased from Sigma Aldrich and substrates from Bachem A G. The assay buffer is composed of 10 mM Tris pH 7.4, 150 mM NaCl, 10 mM MgCl2, 1 mM CaCl2, 0.1% BSA, 0.01% Triton X100 and 5% DMSO. Enzymes are incubated with inhibitors for 30 minutes at RT prior to addition of substrate. All experiments were recorded at 30° C. for 90 minutes.
Assays were performed on a BMG Pherastar plate reader at wavelengths of exc/em 350/450 nm. Kallikrein was bought as a solution of 1080 μg/mL and diluted to a working concentration of 0.3 nM in assay buffer. Substrate Z-Phe-Arg-amc was solubilised at the stock concentration of 10 mM in DMSO and diluted to a working concentration of 300 μM with assay buffer. Inhibitors were solubilised in assay buffer to a stock concentration of 60 μM. 50 μL of each reagent is introduced in wells for a final volume of 150 μL per well. Final concentration of kallikrein in assay is 0.1 nM and substrate is 100 μM.
Final concentrations of inhibitors were: 0.5 nM, 1 nM, 2 nM, 5 nM, 8 nM, 10 nM, 20 nM, 50 nM, 80 nM, 100 nM, 200 nM, 500 nM, 800 nM, 1 μM, 2 μM, 5 μM, 8 μM, 10 μM and 20 μM. The initial rate of the reaction is obtained by plotting fluorescence=f (time) data and by fitting a linear trendline for each concentration of inhibitor. The inhibition curves are obtained by plotting initial rate=f ([I]) and IC50 values can be evaluated.

bovine serum albumin (BSA), sequence (P02769 25-607): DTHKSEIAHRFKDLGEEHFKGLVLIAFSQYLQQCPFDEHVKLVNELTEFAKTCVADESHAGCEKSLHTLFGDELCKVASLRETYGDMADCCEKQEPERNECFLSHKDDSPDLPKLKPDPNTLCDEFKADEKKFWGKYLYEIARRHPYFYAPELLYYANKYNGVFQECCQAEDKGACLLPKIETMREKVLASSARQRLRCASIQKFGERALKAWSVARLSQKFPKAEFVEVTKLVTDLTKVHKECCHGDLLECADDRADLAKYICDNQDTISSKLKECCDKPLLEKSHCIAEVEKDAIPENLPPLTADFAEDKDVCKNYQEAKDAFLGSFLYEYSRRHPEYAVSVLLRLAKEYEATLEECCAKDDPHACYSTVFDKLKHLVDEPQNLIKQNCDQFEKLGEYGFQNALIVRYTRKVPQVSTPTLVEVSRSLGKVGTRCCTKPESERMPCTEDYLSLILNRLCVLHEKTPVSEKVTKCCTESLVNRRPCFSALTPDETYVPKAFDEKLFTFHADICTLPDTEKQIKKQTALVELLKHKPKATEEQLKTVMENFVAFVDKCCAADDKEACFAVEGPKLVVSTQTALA

NC(=O)[C@H](CC(=O)O)NC(=O)CNC(=O)[C@H](CO)NC(=O)CNC(=O)[C@H](Cc1c[nH]c2ccccc12)NC(=O)OCC1c2ccccc2-c2ccccc21 [Fmoc-WGSGD-NH2] (HELM PEPTIDE1{[O=C(OCC1c2ccccc2-c2ccccc21)[*:2]].W.G.S.G.D.[am]}$$$$V2.0)
Kd [1]: ~60 nM | fold tighter binding to BSA than Fmoc-FGSGD-NH2 [1]: 3 fold

NC(=O)[C@H](CC(=O)O)NC(=O)CNC(=O)[C@H](CO)NC(=O)CNC(=O)[C@H](Cc1ccccc1)NC(=O)OCC1c2ccccc2-c2ccccc21 [Fmoc-FGSGD-NH2] (HELM PEPTIDE1{[O=C(OCC1c2ccccc2-c2ccccc21)[*:2]].F.G.S.G.D.[am]}$$$$V2.0)
fold tighter binding to BSA than the glycine variant Fmoc-GGSGD-NH2 [1]: 8 fold

CC[C@H](C)[C@@H]1NC(=O)[C@@H](NC(=O)[C@H](CC(C)C)NC(=O)[C@H](C)N)CSCc2cc3cc(c2)CSC[C@@H](C(=O)N2CCC[C@H]2C(=O)N[C@@H](C)C(=O)N[C@@H](CC(=O)O)C(=O)N[C@@H](CCC(=O)O)C(=O)O)NC(=O)[C@H](CC(N)=O)NC(=O)[C@H](CCCNC(=N)N)NC(=O)[C@H](Cc2ccccc2)NC(=O)[C@H](CCCNC(=N)N)NC(=O)[C@H](CC(=O)O)NC(=O)[C@H](CO)NC(=O)[C@H](CSC3)NC(=O)[C@H](Cc2ccccc2)NC(=O)CNC(=O)[C@H](CC(C)C)NC(=O)[C@H](CC(=O)O)NC(=O)[C@H](Cc2ccccc2)NC1=O [X-CG4L1-PK15L1-Y bicyclic] (HELM PEPTIDE1{A.L.C.I.F.D.L.G.F.C.S.D.R.F.R.N.C.P.A.D.E}|CHEM1{[c1c(C[*:1])cc(C[*:3])cc1C[*:2]]}$PEPTIDE1,CHEM1,3:R3-1:R1|PEPTIDE1,CHEM1,10:R3-1:R2|PEPTIDE1,CHEM1,17:R3-1:R3$$$V2.0)
digestion with Subtilisin (Subtilisin; 0.009 μg enzyme per reaction): +++ | digestion with Subtilisin (Subtilisin; 9 μg enzyme per reaction): − | digestion with Trypsin (Trypsin; 0.01 μg enzyme per reaction): +++ | digestion with Trypsin (Trypsin; 10 μg enzyme per reaction): − | digestion with Kalikrein (Kalikrein; 0.01 μg enzyme per reaction): +++ | digestion with Kalikrein (Kalikrein; 0.1 μg enzyme per reaction): +++ | digestion with Pronase (Pronase; 0.01 μg enzyme per reaction): +++ | digestion with Pronase (Pronase; 0.1 μg enzyme per reaction): +++ | digestion with Pronase (Pronase; 1 μg enzyme per reaction): +++ | digestion with Cathepsin G (Cathepsin G; 0.01 μg enzyme per reaction): +++ | digestion with Cathepsin G (Cathepsin G; 0.1 μg enzyme per reaction): +++ | digestion with Chymotrypsin (Chymotrypsin; 0.01 μg enzyme per reaction): +++ | digestion with Chymotrypsin (Chymotrypsin; 10 μg enzyme per reaction): − | IC50 (Kallikrein): 15 µM

COc1ccc2c(CC(=O)NCCCC[C@H](NC(=O)OCC3c4ccccc4-c4ccccc43)C(=O)O)cc(=O)oc2c1 [Fmoc-Lys-Mca]
Kd [1]: 340 nM

COc1ccc2c(CC(=O)NCCCCC(N)C(=O)O)cc(=O)oc2c1 (centres unmarked) [Lys-Mca]
binding to BSA (change in anisotropy) [1]: no binding

CC[C@H](C)[C@@H]1NC(=O)[C@@H]2CSCc3cc4cc(c3)CSC[C@H](NC(=O)[C@H](CC(N)=O)NC(=O)[C@H](CCCNC(=N)N)NC(=O)[C@H](Cc3ccccc3)NC(=O)[C@H](CCCNC(=N)N)NC(=O)[C@H](CC(=O)O)NC(=O)[C@H](CO)NC(=O)[C@H](CSC4)NC(=O)[C@H](Cc3ccccc3)NC(=O)CNC(=O)[C@H](CC(C)C)NC(=O)[C@H](CC(=O)O)NC(=O)[C@H](Cc3ccccc3)NC1=O)C(=O)N1CCC[C@H]1C(=O)N[C@@H](C)C(=O)N[C@@H](CC(=O)O)C(=O)N[C@@H](CCC(=O)O)C(=O)N[C@@H](C)C(=O)N[C@@H](CC(C)C)C(=O)N2 [CG4L1-PK15L1-PK15L2 tricyclic] (HELM PEPTIDE1{A.D.E.A.L.C.I.F.D.L.G.F.C.S.D.R.F.R.N.C.P}|CHEM1{[c1c(C[*:1])cc(C[*:3])cc1C[*:2]]}$PEPTIDE1,CHEM1,6:R3-1:R1|PEPTIDE1,CHEM1,13:R3-1:R2|PEPTIDE1,CHEM1,20:R3-1:R3|PEPTIDE1,PEPTIDE1,1:R1-21:R2$$$V2.0)
IC50 (Kallikrein): 15 µM

O=C(O)CNC(=O)OCC1c2ccccc2-c2ccccc21 [Fmoc-Gly-OH]
Kd [1]: 420 nM

COc1ccc2c(CC(=O)O)cc(=O)oc2c1 [Mca-OH]
binding to BSA (change in anisotropy) [1]: did not bind BSA

CC[C@H](C)[C@@H]1NC(=O)[C@@H]2CSCc3cc(cc(c3)CSC[C@@H](C(=O)NCC(=O)O)NC(=O)[C@H](Cc3ccccc3)NC(=O)CNC(=O)[C@H](CC(C)C)NC(=O)[C@H](CC(=O)O)NC(=O)[C@H](Cc3ccccc3)NC1=O)CSC[C@H](NC(=O)[C@H](C)N)C(=O)N[C@@H](CO)C(=O)N[C@@H](CC(=O)O)C(=O)N[C@@H](CCCNC(=N)N)C(=O)N[C@@H](Cc1ccccc1)C(=O)N[C@@H](CCCNC(=N)N)C(=O)N[C@@H](CC(N)=O)C(=O)N2 [PK15L1-CG4L1 bicyclic] (HELM PEPTIDE1{A.C.S.D.R.F.R.N.C.I.F.D.L.G.F.C.G}|CHEM1{[c1c(C[*:1])cc(C[*:3])cc1C[*:2]]}$PEPTIDE1,CHEM1,2:R3-1:R1|PEPTIDE1,CHEM1,9:R3-1:R2|PEPTIDE1,CHEM1,16:R3-1:R3$$$V2.0)
IC50 (Kallikrein): 0.2 µM
